In US7342027B2 (Yuhan Corporation, priority 2002, dated 2008) one finds IC50 data, which are given here for 29 molecules.

Each structure is given as a SMILES string.

This assay deals with T1, Recombinant human cathepsin K (Homo sapiens, UniProt P43235).
T1 construct: made in house
T1 sequence (P43235 115-329): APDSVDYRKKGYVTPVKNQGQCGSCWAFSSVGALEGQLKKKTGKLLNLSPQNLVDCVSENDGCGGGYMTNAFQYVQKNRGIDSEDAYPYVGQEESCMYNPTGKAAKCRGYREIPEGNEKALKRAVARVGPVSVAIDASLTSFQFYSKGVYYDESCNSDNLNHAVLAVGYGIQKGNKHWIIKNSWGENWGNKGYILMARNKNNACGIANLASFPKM
The assay can be described thus: Inhibition of cathepsin K activity (Z-Phe-Arg-AMC fluorescence assay). The assay is classed as biochemical. As to conditions: 25 uM Z-Phe-Arg-AMC, pH 5.5, 1 hour at 37° C. How it is done: Test 1: Inhibition of Cathepsin K Activity
Recombinant human cathepsin K was prepared in accordance with Biol, Pharm. Bull, 19(8), 1026-1031 (1996) and J. Biol. Chem. 271, 2126-2132 (1996). Stock solutions of 2.5 mM Z-Phe-Arg-AMC (BACHEM, 1-1160) and all inhibitors were prepared in dimethyl sulfoxide. In vitro assays for cathepsin K were conducted with 25 uM Z-Phe-Arg-AMC as a substrate at pH 5.5 in 100 mM Na acetate buffer containing 20 mM cysteine and 5 mM EDTA in the presence of 2% final concentration of DMSO. Reaction was initiated by the addition of enzyme to samples, which were then incubated for 1 hour at 37° C. The fluorescence was monitored at 460 nm (excitation wavelength 360 nm) using fluorescence plate reader.
The concentrations of the test compounds, which inhibit 50% of cathepsin K activity, are represented as IC50 in Table 1.

As for `CS(=O)(=O)c1ccc(N2CCC(NC(=O)C3(NC(=O)c4cc5ccccc5o4)CCCCC3)C(=O)C2)cc1` (centres unmarked) [Example 5, 4-[N-[1-[N-(benzofuran-2-ylcarbonyl)amino]cyclohexanecarbonyl]amino]-1-(4-methanesulfonylphenyl)piperidin-3-one], the IC50 is 5.05 nM.
As for `CC(=O)c1ccccc1N1CCC(NC(=O)C2(NC(=O)c3cc4ccccc4o3)CCCCC2)C(=O)C1` (centres unmarked) [Example 6, 4-[N-[1-[N-(benzofuran-2-ylcarbonyl)amino]cyclohexanecarbonyl]amino]-1-(2-acetylphenyl)piperidin-3-one], the figure is 2.69 nM; as for `N#Cc1ccc(N2CCC(NC(=O)C3(NC(=O)c4cc5ccccc5o4)CCCCC3)C(=O)C2)cc1` (centres unmarked) [Example 7, 4-[N-[1-[N-(benzofuran-2-ylcarbonyl)amino]cyclohexanecarbonyl]amino]-1-(4-cyanophenyl)piperidin-3-one], 6.24 nM; as for `N#Cc1c(F)cccc1N1CCC(NC(=O)C2(NC(=O)c3cc4ccccc4o3)CCCCC2)C(=O)C1` (centres unmarked) [Example 8, 4-[N-[1-[N-(benzofuran-2-ylcarbonyl)amino]cyclohexanecarbonyl]amino]-1-(2-cyano-3-fluorophenyl)piperidin-3-one], 10.4 nM.
Turning to `O=Cc1ccccc1N1CCC(NC(=O)C2(NC(=O)c3cc4ccccc4o3)CCCCC2)C(=O)C1` (centres unmarked) [Example 15, 4-[N-[1-[N-(benzofuran-2-ylcarbonyl)amino]cyclohexanecarbonyl]amino]-1-(2-formylphenyl)piperidin-3-one], the IC50 came to 1.45 nM.
With `O=C(NC1(C(=O)NC2CCN(c3ccc([N+](=O)[O-])cc3)CC2=O)CCCCC1)c1cc2ccccc2o1` (centres unmarked) [Example 16, 4-[N-[1-[N-(benzofuran-2-ylcarbonyl)amino]cyclohexanecarbonyl]amino]-1-(4-nitrophenyl)piperidin-3-one] the figure was 10.8 nM.
Consider `O=Cc1c(Cl)cccc1N1CCC(NC(=O)C2(NC(=O)c3cc4ccccc4o3)CCCCC2)C(=O)C1` (centres unmarked) [Example 19, 4-[N-[1-[N-(benzofuran-2-ylcarbonyl)amino]cyclohexanecarbonyl]amino]-1-(3-chloro-2-formylphenyl)piperidin-3-one], for which the IC50 amounted to 4.41 nM.
As for `O=C(NC1(C(=O)NC2CCN(c3ccccc3N3CCOCC3)CC2=O)CCCCC1)c1cc2ccccc2o1` (centres unmarked) [Example 26, 4-[N-[1-[N-(benzofuran-2-ylcarbonyl)amino]cyclohexanecarbonyl]amino]-1-[2-(4-morpholino)phenyl]piperidin-3-one], the figure is 19.9 nM; as for `CCOc1ccccc1N1CCC(NC(=O)C2(NC(=O)c3cc4ccccc4o3)CCCCC2)C(=O)C1` (centres unmarked) [Example 27, 4-[N-[1-[N-(benzofuran-2-ylcarbonyl)amino]cyclohexanecarbonyl]amino]-1-(2-ethoxyphenyl)piperidin-3-one], 8.07 nM; as for `O=C(NC1(C(=O)NC2CCN(c3ccccc3-c3ccco3)CC2=O)CCCCC1)c1cc2ccccc2o1` (centres unmarked) [Example 34, 4-[N-[1-[N-(benzofuran-2-ylcarbonyl)amino]cyclohexanecarbonyl]amino]-1-[2-(2-furyl)phenyl]piperidin-3-one], 1.93 nM.
Take `O=C(NC1(C(=O)NC2CCN(c3ccccc3Br)CC2=O)CCCCC1)c1cc2ccccc2o1` (centres unmarked) [Example 35, 4-[N-[1-[N-(benzofuran-2-ylcarbonyl)amino]cyclohexanecarbonyl]amino]-1-(2-bromophenyl)piperidin-3-one]: the IC50 worked out at 2.35 nM.
With `CSc1ccccc1N1CCC(NC(=O)C2(NC(=O)c3cc4ccccc4o3)CCCCC2)C(=O)C1` (centres unmarked) [Example 36, 4-[N-[1-[N-(benzofuran-2-ylcarbonyl)amino]cyclohexanecarbonyl]amino]-1-(2-methylthiophenyl)piperidin-3-one] the figure was 2.13 nM; with `CC(C)(C)OC(=O)c1ccccc1N1CCC(NC(=O)C2(NC(=O)c3cc4ccccc4o3)CCCCC2)C(=O)C1` (centres unmarked) [Example 37, 4-[N-[1-[N-(benzofuran-2-ylcarbonyl)amino]cyclohexanecarbonyl]amino]-1-[2-(tert-butoxycarbonyl)phenyl]piperidin-3-one], 3.78 nM; with `CC(C)Oc1ccccc1N1CCC(NC(=O)C2(NC(=O)c3cc4ccccc4o3)CCCCC2)C(=O)C1` (centres unmarked) [Example 41, 4-[N-[1-[N-(benzofuran-2-ylcarbonyl)amino]cyclohexanecarbonyl]amino]-1-(2-isopropoxyphenyl)piperidin-3-one], 7.73 nM.
With `CCSc1ccccc1N1CCC(NC(=O)C2(NC(=O)c3cc4ccccc4o3)CCCCC2)C(=O)C1` (centres unmarked) [Example 42, 4-[N-[1-[N-(benzofuran-2-ylcarbonyl)amino]cyclohexanecarbonyl]amino]-1-(2-ethylthiophenyl)piperidin-3-one] the figure was 3.87 nM; with `CC1(C)CN(c2ccccc2N2CCC(NC(=O)C3(NC(=O)c4cc5ccccc5o4)CCCCC3)C(=O)C2)C1=O` (centres unmarked) [Example 43, 4-[N-[1-[N-(benzofuran-2-ylcarbonyl)amino]cyclohexanecarbonyl]amino]-1-[2-(3,3-dimethylazetidin-2-one-1-yl)phenyl]piperidin-3-one], 4.97 nM; with `O=C(NC1(C(=O)NC2CCN(c3ccccc3N3CCCCC3=O)CC2=O)CCCCC1)c1cc2ccccc2o1` (centres unmarked) [Example 45, 4-[N-[1-[N-(benzofuran-2-ylcarbonyl)amino]cyclohexanecarbonyl]amino]-1-[2-(piperidin-2-one-1-yl)phenyl]piperidin-3-one], 6.8 nM.
For the molecule `CCOC(=O)Nc1ccccc1N1CCC(NC(=O)C2(NC(=O)c3cc4ccccc4o3)CCCCC2)C(=O)C1` (centres unmarked) [Example 48, 4-[N-[1-[N-(benzofuran-2-ylcarbonyl)amino]cyclohexanecarbonyl]amino]-1-[2-[N-(ethoxycarbonyl)amino]phenyl]piperidin-3-one], the half-inhibitory concentration (IC50) was determined as 0.67 nM.
As for `COC(=O)Nc1ccccc1N1CCC(NC(=O)C2(NC(=O)c3cc4ccccc4o3)CCCCC2)C(=O)C1` (centres unmarked) [Example 49, 4-[N-[1-[N-(benzofuran-2-ylcarbonyl)amino]cyclohexanecarbonyl]amino]-1-[2-[N-(methoxycarbonyl)amino]phenyl]piperidin-3-one], the figure is 0.45 nM; as for `O=C(CCCCl)Nc1ccccc1N1CCC(NC(=O)C2(NC(=O)c3cc4ccccc4o3)CCCCC2)C(=O)C1` (centres unmarked) [Example 50, 4-[N-[1-[N-(benzofuran-2-ylcarbonyl)amino]cyclohexanecarbonyl]amino]-1-[2-[N-(4-chlorobutyryl)amino]phenyl]piperidin-3-one], 1.2 nM; as for `CC(C)C(=O)Nc1ccccc1N1CCC(NC(=O)C2(NC(=O)c3cc4ccccc4o3)CCCCC2)C(=O)C1` (centres unmarked) [Example 51, 4-[N-[1-[N-(benzofuran-2-ylcarbonyl)amino]cyclohexanecarbonyl]amino]-1-[2-[N-(isobutyryl)amino]phenyl]piperidin-3-one], 4.11 nM.
In the case of `O=C(NC1(C(=O)NC2CCN(c3ccccc3NC(=O)C3CC3)CC2=O)CCCCC1)c1cc2ccccc2o1` (centres unmarked) [Example 53, 4-[N-[1-[N-(benzofuran-2-ylcarbonyl)amino]cyclohexanecarbonyl]amino]-1-[2-[N-(cyclopropanecarbonyl)amino]phenyl]piperidin-3-one], the IC50 worked out at 1.22 nM.
With `O=C(CCc1ccccc1)Nc1ccccc1N1CCC(NC(=O)C2(NC(=O)c3cc4ccccc4o3)CCCCC2)C(=O)C1` (centres unmarked) [Example 54, 4-[N-[1-[N-(benzofuran-2-ylcarbonyl)amino]cyclohexanecarbonyl]amino]-1-[2-[N-(3-phenylpropionyl)amino]phenyl]piperidin-3-one], the IC50 was 6.09 nM.
In the case of `CC(=O)Nc1ccccc1N1CCC(NC(=O)C2(NC(=O)c3cc4ccccc4o3)CCCCC2)C(=O)C1` (centres unmarked) [Example 56, 4-[N-[1-[N-(benzofuran-2-ylcarbonyl)amino]cyclohexanecarbonyl]amino]-1-[2-[N-(acetyl)amino]phenyl]piperidin-3-one], the half-maximal inhibitory concentration (IC50) was found to be 1.62 nM.
With `O=C(NC1(C(=O)NC2CCN(c3ccccc3-n3cnnn3)CC2=O)CCCCC1)c1cc2ccccc2o1` (centres unmarked) [Example 58, 4-[N-[1-[N-(benzofuran-2-ylcarbonyl)amino]cyclohexanecarbonyl]amino]-1-[2-(tetrazol-1-yl)phenyl]piperidin-3-one] the figure was 4.82 nM; with `O=C(NC1(C(=O)NC2CCN(c3ccccc3-c3nnn[nH]3)CC2=O)CCCCC1)c1cc2ccccc2o1` (centres unmarked) [Example 67, 4-[N-[1-[N-(benzofuran-2-ylcarbonyl)amino]cyclohexanecarbonyl]amino]-1-[2-(1H-tetrazol-5-yl)phenyl]piperidin-3-one], 4.77 nM.
As for `C[S+]([O-])c1ccccc1N1CCC(NC(=O)C2(NC(=O)c3cc4ccccc4o3)CCCCC2)C(=O)C1` (centres unmarked) [Example 68], the figure is 3.12 nM.
With `CC[S+]([O-])c1ccccc1N1CCC(NC(=O)C2(NC(=O)c3cc4ccccc4o3)CCCCC2)C(=O)C1` (centres unmarked) [Example 69] the figure was 1.59 nM; with `CC(C)[S+]([O-])c1ccccc1N1CCC(NC(=O)C2(NC(=O)c3cc4ccccc4o3)CCCCC2)C(=O)C1` (centres unmarked) [Example 70, 4-[N-[1-[N-(benzofuran-2-ylcarbonyl)amino]cyclohexanecarbonyl]amino]-1-(2-isopropylsulfinylphenyl)piperidin-3-one], 1.73 nM.
